Measured values reported in ChEMBL document CHEMBL1201862, “PubChem BioAssay data set” (2004).
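Dose response: 5 concentrations. Exposure: 48 h. Format: 96-well plates. Endpoint: linear interpolation; highest concentration if not reached. Abbreviation: GI50, concentration required for 50% inhibition of growth.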 The source made the active and inactive calls. Cut-off read from the data, not from the text of the source: active = GI50 up to about 1.1 µM and inactive = higher.

What was measured:
Assay in all cases: NCI-60 cell line screen, 48 h
CAKI-1 = test system: CAKI-1
COLO 205 = test system: COLO 205
EKVX = test system: EKVX
HCC 2998 = test system: HCC 2998
HCT-15 = test system: HCT-15
IGROV-1 = test system: IGROV-1
K562 = test system: K562
LOX IMVI = test system: LOX IMVI
M14 = test system: M14
M19-MEL = test system: M19-MEL
NCI-H226 = test system: NCI-H226
SF-295 = test system: SF-295
SNB-75 = test system: SNB-75
SR = test system: SR
TK-10 = test system: TK-10
UO-31 = test system: UO-31

Compound | GI50 (CAKI-1) | GI50 (COLO 205) | GI50 (EKVX) | GI50 (HCC 2998) | GI50 (HCT-15) | GI50 (IGROV-1) | GI50 (K562) | GI50 (LOX IMVI) | GI50 (M14) | GI50 (M19-MEL) | GI50 (NCI-H226) | GI50 (SF-295) | GI50 (SNB-75) | GI50 (SR) | GI50 (TK-10) | GI50 (UO-31)
CCOC(=O)CCC(NC(=O)c1ccc(/N=C/c2nc3cc(C(F)(F)F)ccc3nc2-c2ccccc2)cc1)C(=O)OCC (configuration not stated) | 32.4 µM (inactive) | 25.5 µM (inactive) | 28.9 µM (inactive) | > 50 µM (inactive) | > 50 µM | 15.3 µM (inactive) | > 50 µM (inactive) | 14.4 µM (inactive) | 23.9 µM (inactive) | > 50 µM (inactive) | > 50 µM (inactive) | 9.84 µM (inactive) | 5.04 µM (inactive) | > 50 µM (inactive) | 12.1 µM (inactive) | > 50 µM (inactive)
O=C1CC(c2ccc(Cl)cc2)=Nc2ccccc2N1 | > 100 µM (inactive) | > 100 µM (inactive) | 47.3 µM (inactive) | 97.1 µM (inactive) | 65.8 µM | > 100 µM (inactive) | 40 µM (inactive) | 24.2 µM (inactive) | > 100 µM (inactive) | > 100 µM (inactive) | > 100 µM (inactive) | 86.7 µM (inactive) | 20.6 µM (inactive) | 37.8 µM (inactive) | 43.3 µM (inactive) | 48 µM (inactive)
O=C(Nc1ccc(Cl)c(Cl)c1)C1C(=O)N(c2ccc(Cl)c(Cl)c2)C(=O)/C1=N\O (configuration not stated) | > 100 µM (inactive) | 19.3 µM (inactive) | 39.6 µM (inactive) | > 100 µM (inactive) | > 100 µM | > 100 µM (inactive) | 16.9 µM (inactive) | 24.5 µM (inactive) | 22.9 µM (inactive) | 31.8 µM (inactive) | 50.5 µM (inactive) | 73.5 µM (inactive) | > 100 µM (inactive) | – | > 100 µM (inactive) | > 100 µM (inactive)
CCOC(=O)C(C)(C)Oc1ccc2c(=O)cc(-c3ccccc3)oc2c1 | – | 19.6 µM (inactive) | 31.9 µM (inactive) | > 100 µM (inactive) | 20 µM | 29.5 µM (inactive) | 13 µM (inactive) | 17.5 µM (inactive) | 19.5 µM (inactive) | 20.7 µM (inactive) | 22.8 µM (inactive) | 26.5 µM (inactive) | 19.1 µM (inactive) | – | > 100 µM (inactive) | 48.6 µM (inactive)
COc1ccc(/C=c2/sc3n(c2=O)NC2(CCCCC2)NN=3)cc1 | > 100 µM (inactive) | > 100 µM (inactive) | > 100 µM (inactive) | > 100 µM (inactive) | – | > 100 µM (inactive) | > 100 µM (inactive) | > 100 µM (inactive) | > 100 µM (inactive) | > 100 µM (inactive) | > 100 µM (inactive) | > 100 µM (inactive) | 92.7 µM (inactive) | > 100 µM (inactive) | > 100 µM (inactive) | > 100 µM (inactive)
CC(=O)OC1COC(N2C(=O)C(=O)c3cc(Br)ccc32)C(OC(C)=O)C1OC(C)=O (configuration not stated) | > 100 µM (inactive) | > 100 µM (inactive) | > 100 µM (inactive) | > 100 µM (inactive) | > 100 µM | > 100 µM (inactive) | > 100 µM (inactive) | > 100 µM (inactive) | > 100 µM (inactive) | 52.1 µM (inactive) | > 100 µM (inactive) | > 100 µM (inactive) | > 100 µM (inactive) | > 100 µM (inactive) | > 100 µM (inactive) | > 100 µM (inactive)
C=CCO/N=C(\OC(=O)c1ccc([N+](=O)[O-])cc1)c1ccccc1 | > 100 µM (inactive) | > 100 µM (inactive) | > 100 µM (inactive) | > 100 µM (inactive) | > 100 µM | > 100 µM (inactive) | > 100 µM (inactive) | – | > 100 µM (inactive) | > 100 µM (inactive) | > 100 µM (inactive) | > 100 µM (inactive) | > 100 µM (inactive) | – | > 100 µM (inactive) | > 100 µM (inactive)
NC(=O)c1ccc(Cl)c([N+](=O)[O-])c1 | > 100 µM (inactive) | > 100 µM (inactive) | > 100 µM (inactive) | > 100 µM (inactive) | > 100 µM | > 100 µM (inactive) | > 100 µM (inactive) | > 100 µM (inactive) | > 100 µM (inactive) | > 100 µM (inactive) | > 100 µM (inactive) | > 100 µM (inactive) | > 100 µM (inactive) | – | > 100 µM (inactive) | > 100 µM (inactive)
N#Cc1ccc(OCCSCCCCCCCCCCSCCOc2ccc(C#N)cc2)cc1 | – | > 100 µM (inactive) | > 100 µM (inactive) | > 100 µM (inactive) | > 100 µM | > 100 µM (inactive) | > 100 µM (inactive) | > 100 µM (inactive) | > 100 µM (inactive) | > 100 µM (inactive) | > 100 µM (inactive) | 22.6 µM (inactive) | > 100 µM (inactive) | – | > 100 µM (inactive) | 0.402 µM (active)
COC(=O)C1=CC2OC1(C)C1(CC1)C2=O (configuration not stated) | 16 µM (inactive) | 13.5 µM (inactive) | 15.2 µM (inactive) | 18.3 µM (inactive) | 15.9 µM | 17.9 µM (inactive) | 12.2 µM (inactive) | 14 µM (inactive) | 13.5 µM (inactive) | 21 µM (inactive) | 21.6 µM (inactive) | 19 µM (inactive) | 19.8 µM (inactive) | 10.3 µM (inactive) | > 10 µM (inactive) | 22.1 µM (inactive)
N#CC(C(=O)CCC(=O)C(C#N)c1ccccc1)c1ccccc1 (configuration not stated) | > 100 µM (inactive) | > 100 µM (inactive) | > 100 µM (inactive) | > 100 µM (inactive) | > 100 µM | > 100 µM (inactive) | > 100 µM (inactive) | > 100 µM (inactive) | > 100 µM (inactive) | > 100 µM (inactive) | > 100 µM (inactive) | > 100 µM (inactive) | > 100 µM (inactive) | > 100 µM (inactive) | > 100 µM (inactive) | > 100 µM (inactive)
COC1(OC)CCCCC2c3cccc(OC(C)=O)c3C21OC(C)=O (configuration not stated) | – | > 100 µM (inactive) | > 100 µM (inactive) | > 100 µM (inactive) | 73.8 µM | > 100 µM (inactive) | 55.3 µM (inactive) | > 100 µM (inactive) | > 100 µM (inactive) | > 100 µM (inactive) | > 100 µM (inactive) | > 100 µM (inactive) | > 100 µM (inactive) | 59.2 µM (inactive) | > 100 µM (inactive) | 51.6 µM (inactive)
Cc1cccc(C)c1NC(=O)CCC(=O)NNc1nnc(C)n1N | > 100 µM (inactive) | > 100 µM (inactive) | > 100 µM (inactive) | > 100 µM (inactive) | > 100 µM | > 100 µM (inactive) | > 100 µM (inactive) | > 100 µM (inactive) | > 100 µM (inactive) | > 100 µM (inactive) | > 100 µM (inactive) | > 100 µM (inactive) | > 100 µM (inactive) | > 100 µM (inactive) | > 100 µM (inactive) | > 100 µM (inactive)
CCOc1ccccc1NC(=O)C(=O)CC(=O)c1c(C)[n+]([O-])c2ccccc2[n+]1[O-] | > 100 µM (inactive) | 35.2 µM (inactive) | > 100 µM (inactive) | > 100 µM (inactive) | 67.1 µM | > 100 µM (inactive) | > 100 µM (inactive) | 99.3 µM (inactive) | > 100 µM (inactive) | 50.9 µM (inactive) | > 100 µM (inactive) | > 100 µM (inactive) | > 100 µM (inactive) | – | > 100 µM (inactive) | > 100 µM (inactive)
CC(=O)NC1=C(NCCC(C)C)C(=O)c2ccccc2C1=O | – | > 50 µM (inactive) | > 50 µM (inactive) | > 50 µM (inactive) | > 50 µM | > 50 µM (inactive) | > 50 µM (inactive) | > 50 µM (inactive) | > 50 µM (inactive) | > 50 µM (inactive) | > 50 µM (inactive) | > 50 µM (inactive) | > 50 µM (inactive) | > 50 µM (inactive) | > 50 µM (inactive) | > 50 µM (inactive)
NC(=O)c1c2c(cc3c(=O)c4ccccc4[nH]c13)CCCC2 | > 100 µM (inactive) | > 100 µM (inactive) | > 100 µM (inactive) | > 100 µM (inactive) | > 100 µM | > 100 µM (inactive) | > 65.2 µM (inactive) | > 100 µM (inactive) | > 100 µM (inactive) | > 100 µM (inactive) | > 100 µM (inactive) | > 100 µM (inactive) | 43.1 µM (inactive) | > 100 µM (inactive) | > 100 µM (inactive) | > 100 µM (inactive)
CCOC(=O)C1N(S(=O)(=O)c2ccc(C)cc2)CCC12c1ccccc1N(C(C)=O)C2C(/C=C/C(=O)OC)=C/C(=O)OC (configuration not stated) | > 100 µM (inactive) | > 100 µM (inactive) | > 100 µM (inactive) | > 100 µM (inactive) | – | > 100 µM (inactive) | 85.3 µM (inactive) | > 100 µM (inactive) | > 100 µM (inactive) | > 100 µM (inactive) | > 100 µM (inactive) | > 100 µM (inactive) | > 100 µM (inactive) | – | > 100 µM (inactive) | > 100 µM (inactive)
CC12CCC[C@@](C)(C(=O)OC3OC(CO)C(O)C(O)C3O)[C@H]1CCC13CC4CC(OC4(CO)[C@H]1O)[C@@H]23 (some centres not stated) | > 100 µM (inactive) | – | > 100 µM (inactive) | > 100 µM (inactive) | 53.7 µM | > 100 µM (inactive) | > 100 µM (inactive) | – | > 100 µM (inactive) | > 100 µM (inactive) | > 100 µM (inactive) | > 100 µM (inactive) | > 100 µM (inactive) | > 100 µM (inactive) | > 100 µM (inactive) | > 100 µM (inactive)
